Results on 23 compounds are retold here after patent US10065972B2, “Bicyclic or tricyclic heterocyclic compound” (MITSUBISHI TANABE PHARMA CORPORATION, priority 2014, dated 2018).

Chain of human recombinant KAT-II (Q8N5Z0 30-425): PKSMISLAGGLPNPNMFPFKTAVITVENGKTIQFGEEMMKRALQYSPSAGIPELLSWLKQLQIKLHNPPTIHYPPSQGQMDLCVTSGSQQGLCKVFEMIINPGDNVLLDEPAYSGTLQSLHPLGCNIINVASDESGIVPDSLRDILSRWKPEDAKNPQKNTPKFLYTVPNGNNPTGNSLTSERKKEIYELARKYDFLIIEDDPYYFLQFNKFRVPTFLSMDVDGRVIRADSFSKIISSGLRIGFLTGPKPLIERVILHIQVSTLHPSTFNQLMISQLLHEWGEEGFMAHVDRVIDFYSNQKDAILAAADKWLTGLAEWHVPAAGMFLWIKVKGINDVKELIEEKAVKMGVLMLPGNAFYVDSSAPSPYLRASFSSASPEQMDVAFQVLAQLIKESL

The target of the assay is human recombinant KAT-II (Homo sapiens (Human), UniProt Q8N5Z0). Put plainly: KAT-II inhibitory test. It counts as biochemical. Conditions: 3.0 μmol/L kynurenine, 37° C., 1 hr, pH 8.0; kynurenic acid quantified by HPLC. The protocol:
The compounds described in the above-mentioned Examples were used for the KAT-II inhibitory test.
Preparation of Human Recombinant KAT-II
Human recombinant KAT-II was prepared as follows.
His tag and maltose binding protein tag were added to the N-terminal of a gene encoding human KAT-II (Genbank accession number: AF481738.1), and the obtained gene was incorporated into pET32 (Merck Nihon Millipore), which is an Escherichia coli expression vector. Human recombinant KAT-II produced by BL21(DE3) Escherichia coli (Merck Nihon Millipore, 69450) transformed using the plasmid was purified using an amylose resin column (New England Biolabs, #800-21 L).
The inhibitory action of the test compound on human recombinant KAT-II was determined by the following method.
To a reaction mixture (45 μL) containing 3.0 μmol/L kynurenine, 10 μmol/L pyridoxal phosphate, 2.0 ng/μL human recombinant KAT-II, and 150 mmol/L tris(hydroxymethyl)aminomethane-acetate buffer (pH 8.0) was added a 10% dimethyl sulfoxide solution (5 μL) of each test compound prepared, and the mixture was reacted at 37° C. for 1 hr. After the reaction, 50% trichloroacetic acid (5 μL) was added to terminate the reaction.
The resultant kynurenic acid was quantified as follows by high performance liquid chromatography. An enzyme reaction mixture was separated by an octadecylsilane reversed-phase column (SC-50DS, Eicom Corporation; mobile phase: 250 mmol/L zinc acetate, 50 mmol/L sodium acetate, and 5.0% acetonitrile (pH 6.2)) incubated at 30° C., and kynurenic acid was quantified using a fluorescence detector (RF-20Axs, Shimadzu Corporation) at excitation wavelength 354 nm, detection wavelength 460 nm. The analytical curve was drawn every time by an external standard method. Each test compound was tested by dual measurement at each concentration.
As to `O=C(Oc1ccccc1)N1CCC[C@@H]1c1nc2c(=O)[nH]c(N3CCCCC3)nc2s1` [Example 107, (R)-2-[7-oxo-5-(piperidin-1-yl)-6,7-dihydro[1,3]thiazolo[5,4-d]pyrimidin-2-yl]pyrrolidine-1-carboxylic acid phenyl ester], the IC50 (usually the concentration that inhibits the measured activity by half) was determined as 46 nM.

Turning to `CCc1nc2sc([C@H]3CCCN3C(=O)Oc3ccccc3)nc2c(=O)n1Cc1ccc(OC)cc1OC` [Example 111, (R)-2-[6-(2,4-dimethoxybenzyl)-5-ethyl-7-oxo-6,7-dihydro[1,3]thiazolo[5,4-d]pyrimidin-2-yl]pyrrolidine-1-carboxylic acid phenyl ester], the IC50 was determined as 270 nM.

`CCc1nc2sc([C@H]3CCCN3C(=O)Oc3ccccc3)nc2c(=O)[nH]1` [Example 114, (R)-2-(5-ethyl-7-oxo-6,7-dihydro[1,3]thiazolo[5,4-d]pyrimidin-2-yl)pyrrolidine-1-carboxylic acid phenyl ester]: the IC50 was 29 nM.

Take `CC1(c2nc3sc([C@H]4CCCN4C(=O)Oc4ccccc4)nc3c(=O)[nH]2)COC1` [Example 116, (R)-2-[5-(3-methyloxetan-3-yl)-7-oxo-6,7-dihydro[1,3]thiazolo[5,4-d]pyrimidin-2-yl]pyrrolidine-1-carboxylic acid phenyl ester]: the IC50 came out at 14 nM.

As to `Cc1noc(-c2nc3sc([C@H]4CCCN4C(=O)Oc4ccccc4)nc3c(=O)[nH]2)n1` [Example 120, (R)-2-[5-(3-methyl-[1,2,4]oxadiazol-5-yl)-7-oxo-6,7-dihydro[1,3]thiazolo[5,4-d]pyrimidin-2-yl]pyrrolidine-1-carboxylic acid phenyl ester], the 50% inhibitory concentration (IC50) is 4.7 nM.

On to `CC(C)(F)c1nc2sc(N3CCCN3C(=O)Oc3ccccc3)nc2c(=O)[nH]1` [Example 131, 2-[5-(2-fluoropropan-2-yl)-7-oxo-6,7-dihydro[1,3]thiazolo[5,4-d]pyrimidin-2-yl]pyrazolidine-1-carboxylic acid phenyl ester], for which the IC50 came out at 110 nM.

Consider `Cc1cccc(OC(=O)N2CCCN2c2nc3c(=O)[nH]c(C(C)(C)F)nc3s2)c1` [Example 132, 2-[5-(2-fluoropropan-2-yl)-7-oxo-6,7-dihydro[1,3]thiazolo[5,4-d]pyrimidin-2-yl]pyrazolidine-1-carboxylic acid 3-methylphenyl ester], for which the IC50 amounted to 51 nM.

With `CC(C)(F)c1nc2sc(N3CCCN3C(=O)Cc3ccccc3)nc2c(=O)[nH]1` [Example 133, 5-(2-fluoropropan-2-yl)-2-[2-(phenylacetyl)pyrazolidin-1-yl]-6H-[1,3]thiazolo[5,4-d]pyrimidin-7-one], the IC50 came out at 150 nM.

`Cc1cccc(CC(=O)N2CCCN2c2nc3c(=O)[nH]c(C(C)(C)F)nc3s2)c1` [Example 134, 5-(2-fluoropropan-2-yl)-2-{2-[2-(3-methylphenyl)acetyl]pyrazolidin-1-yl}-6H-[1,3]thiazolo[5,4-d]pyrimidin-7-one]: the IC50 turned out to be 230 nM.

For the compound `CC(C)c1nc2sc([C@H]3CCCN3C(=O)Oc3ccccc3)nc2c(=O)n1C` [Example 135, (R)-2-[6-methyl-7-oxo-5-(propan-2-yl)-6,7-dihydro[1,3]thiazolo[5,4-d]pyrimidin-2-yl]pyrrolidine-1-carboxylic acid phenyl ester], the IC50 was determined as 23 nM.

On to `O=C(Oc1ccccc1)N1CCC[C@@H]1c1nc2c(=O)[nH]c(-c3ccccc3F)cc2s1` [Example 137, (R)-2-[6-(2-fluorophenyl)-4-oxo-4,5-dihydro[1,3]thiazolo[4,5-c]pyridin-2-yl]pyrrolidine-1-carboxylic acid phenyl ester], for which the concentration for half-maximal inhibition (IC50) was 69 nM.

Take `O=C(Oc1ccccc1)N1CCC[C@@H]1c1nc2c(=O)[nH]c(C(F)(F)F)cc2s1` [Example 138, (R)-2-(4-oxo-6-trifluoromethyl-4,5-dihydro[1,3]thiazolo[4,5-c]pyridin-2-yl)pyrrolidine-1-carboxylic acid phenyl ester]: the half-inhibitory concentration (IC50) came to 390 nM.

Turning to `CC(C)c1cc(=O)n2nc([C@H]3CCCN3C(=O)Oc3ccc(F)cc3)sc2n1` [Example 140, (R)-2-[5-oxo-7-(propan-2-yl)-5H-[1,3,4]thiadiazolo[3,2-a]pyrimidin-2-yl]pyrrolidine-1-carboxylic acid 4-fluorophenyl ester], the IC50 came to 77 nM.

On to `CC(C)c1cc(=O)n2nc([C@H]3CCCN3C(=O)Cc3ccccc3)sc2n1` [Example 142, 2-[(R)-1-(phenylacetyl)pyrrolidin-2-yl]-7-(propan-2-yl)-5H-[1,3,4]thiadiazolo[3,2-a]pyrimidin-5-one], for which the IC50 was found to be 980 nM.

As to `CC(C)c1cc(=O)n2nc([C@H]3CCCN3C(=O)Cc3ccc(F)cc3)sc2n1` [Example 143, 2-{(R)-1-[2-(4-fluorophenyl)acetyl]pyrrolidin-2-yl}-7-(propan-2-yl)-5H-[1,3,4]thiadiazolo[3,2-a]pyrimidin-5-one], the IC50 was 2200 nM.

`CC(C)c1cc(=O)n2nc([C@H]3CCCN3C(=O)OCc3ccccc3)sc2n1` [Example 144, (R)-2-[5-oxo-7-(propan-2-yl)-5H-[1,3,4]thiadiazolo[3,2-a]pyrimidin-2-yl]pyrrolidine-1-carboxylic acid benzyl ester]: the IC50 came to 720 nM.

For the compound `CC(C)c1cc(=O)n2nc([C@H]3CCCN3C(=O)COc3ccccc3)sc2n1` [Example 145, 2-[(R)-1-(2-phenoxyacetyl)pyrrolidin-2-yl]-7-(propan-2-yl)-5H-[1,3,4]thiadiazolo[3,2-a]pyrimidin-5-one], the IC50 is 1500 nM.

Consider `CCc1cc(=O)n2nc([C@H]3CCCN3C(=O)Oc3ccccc3)sc2n1` [Example 146, (R)-2-(7-ethyl-5-oxo-5H-[1,3,4]thiadiazolo[3,2-a]pyrimidin-2-yl)pyrrolidine-1-carboxylic acid phenyl ester], for which the concentration for half-maximal inhibition (IC50) is 140 nM.

On to `CCc1c(C)nc2sc([C@H]3CCCN3C(=O)Oc3ccccc3)nn2c1=O` [Example 148, (R)-2-(6-ethyl-7-methyl-5-oxo-5H-[1,3,4]thiadiazolo[3,2-a]pyrimidin-2-yl)pyrrolidine-1-carboxylic acid phenyl ester], for which the half-inhibitory concentration (IC50) was 230 nM.

Turning to `O=C(Oc1ccccc1)N1CCC[C@@H]1c1nn2c(=O)c3c(nc2s1)CCCC3` [Example 149, (R)-2-(5-oxo-6,7,8,9-tetrahydro-5H-[1,3,4]thiadiazolo[2,3-b]quinazolin-2-yl)pyrrolidine-1-carboxylic acid phenyl ester], the IC50 came to 160 nM.

Turning to `CC(C)c1nc2sc([C@H]3CCCN3C(=O)Oc3ccccc3)nn2c(=O)c1Cl` [Example 153, (R)-2-[6-chloro-5-oxo-7-(propan-2-yl)-5H-[1,3,4]thiadiazolo[3,2-a]pyrimidin-2-yl]pyrrolidine-1-carboxylic acid phenyl ester], the IC50 turned out to be 48 nM.

On to `O=C(Oc1ccccc1)N1CCC[C@@H]1c1nn2c(=O)c3cc(F)ccc3nc2s1` [Example 155, (R)-2-(7-fluoro-5-oxo-5H-[1,3,4]thiadiazolo[2,3-b]quinazolin-2-yl)pyrrolidine-1-carboxylic acid phenyl ester], for which the IC50 was determined as 320 nM.

Turning to `CC(C)c1cc(=O)n2nc([C@H]3CCCN3C(=O)NCc3ccccc3)sc2n1` [Example 157, (R)-N-benzyl-2-[5-oxo-7-(propan-2-yl)-5H-[1,3,4]thiadiazolo[3,2-a]pyrimidin-2-yl]pyrrolidine-1-carboxamide], the IC50 stood at 470 nM.
